Results on two molecules are retold here after article PMC11542830, “3-nitropyridine analogues as novel microtubule-targeting agents” (PLOS ONE, 2024).

One test deals with UO-31. Kind of test: NCI60 5-dose screen, UO-31. Format: cell-based. The settings on record: Homo sapiens, renal cancer, Fig 1D, read-out: Log10 GI50 (UO-31) (converted). As to the method:
(§1) The screening methodology used in the NCI60 Cell 5-Doses screen is described in detail at https://dtp.cancer.gov/discovery_development/nci-60/methodology.htm. Briefly, cells are seeded in 96 well plates at an appropriate density and incubated for 1 day. After 1 day, some of the plates are processed to determine a time zero density. To the remaining plates, compounds are added over a 5-log M concentration range (1 log dilutions from 10^-4M to 10^-8M). Plates are incubated for two additional days, then fixed and stained with sulforhodamine B. Growth inhibition is calculated relative to cells without drug treatment and the time zero control. The GI50 is the concentration of a compound that causes 50% growth inhibition, relative to the no drug control.

The subject of a further test is UACC-62. Put plainly: NCI60 5-dose screen, UACC-62. The following applies: Homo sapiens, melanoma, Fig 1D, read-out: Log10 GI50 (UACC-62) (converted). It counts as cell-based. As to the method: as §1
The next test has as its system ACHN. Put plainly: NCI60 5-dose screen, ACHN. Format: cell-based. The following applies: Homo sapiens, renal cancer, Fig 1D, read-out: Log10 GI50 (ACHN) (converted). As for the experimental part:
as §1

Test [1] relates to Jurkat cells. Kind of test: Cell cycle analysis (DAPI, high content imaging), Jurkat. Format: cell-based, human. The following applies: 24 hours. As for the experimental part: Cell viability in cancer cell lines treated with compound was measured in a 3-day MTS cell proliferation assay using the CellTiter 96 AQueous Non-Radioactive Cell Proliferation Assay reagent (Promega) according to the manufacturer’s instructions. Absorbance was read at 490 nm on a SaFire II microplate reader (Tecan). CC50 values were calculated by fitting the obtained MTS cell viability data in GraphPad Prism using a 4-parameter log–based fit for inhibitors. Apoptosis induction and cell death upon compound treatment in PBMC was measured using the Alexa Fluor 488 Annexin V/Dead Cell Apoptosis Kit (Thermo Fisher Scientific), with readout on a FACSCanto II flow cytometer (BD Biosciences). For cell cycle analysis, Jurkat cells were seeded at 400,000 cells per well in 12-well tissue culture plates and treated with the test compounds at the indicated concentrations for 24 h. Cells were then harvested by centrifugation at 400 x g, washed in PBS and transferred to an 8-well μ-Slide (Ibidi) that had been pretreated with 0.1% (w/v) poly-L-lysine (Sigma). Cells were allowed to adhere to the slides, fixed with 4% PFA in PBS for 10 minutes, washed and stained with DAPI. […] The compounds were evaluated in duplo in two independent experiments.

Another test concerns KM12. Put plainly: NCI60 5-dose screen, KM12. It counts as cell-based. The settings on record: Homo sapiens, colon cancer, Fig 1D, read-out: Log10 GI50 (KM12) (converted). As for the experimental part: as §1
The test system of test [2] is microtubule network in A549 cells. Kind of test: Immunofluorescence staining of alpha-tubulin in A549 cells. It counts as cell-based, human. The settings on record: 4 hours, 250 nM. As to the method:
Non-small cell lung carcinoma A549 cells were seeded at 50,000 cells/well in an 8-well Nunc™ Lab-Tek™ chambered coverglass slide. After overnight incubation, they were treated with compound or carrier (DMSO) for 4 hours and then fixed with 4% PFA, washed and permeabilized (0.2% Triton X-100 in PBS). Further treatment was performed according to standard immunofluorescence procedures, employing 10% normal goat serum (Thermo Fisher Scientific) as blocking medium and as antibody diluent. Employed antibodies were mouse anti-alpha tubulin (sc-5286, Santa Cruz Biotechnology) at 1:300 dilution and secondary goat anti-mouse IgG conjugated to Alexa Fluor® 488 (A11001, Invitrogen, Thermo Fisher Scientific). Cell nuclei were counterstained with DAPI. Images were collected with a Leica TCS SP5 confocal microscope employing a HCX PL APO 63x (NA 1.2) water immersion objective.

The subject of another test is DU-145. Put plainly: NCI60 5-dose screen, DU-145. Format: cell-based. The settings on record: Homo sapiens, prostate cancer, Fig 1D, read-out: Log10 GI50 (DU-145) (converted). As for the experimental part: as §1
A further test relates to 786-0. Kind of test: NCI60 5-dose screen, 786-0. It counts as cell-based. The settings on record: Homo sapiens, renal cancer, Fig 1D, read-out: Log10 GI50 (786-0) (converted). As to the method:
as §1

Another test relates to BC-1 cells. Put plainly: 3-day MTS cell viability assay, BC-1. Format: cell-based. The settings on record: Homo sapiens, BC1, 72 hours, Fig 1C. As to the method: All cancer cell lines (HT-29: colorectal adenocarcinoma, HCT-116: colorectal carcinoma, A549: lung epithelial carcinoma, PC3: prostate adenocarcinoma, Jurkat: acute T-cell leukemia, BC-1: primary effusion lymphoma) and the normal human embryonal lung fibroblast cell line MRC-5 were acquired from the American Type Culture Collection (ATCC). All cell lines were cultured as recommended by the suppliers. Culture media were purchased from Gibco (Thermo Fisher Scientific) and supplemented with 10 to 20% fetal bovine serum (HyClone, GE Healthcare Life Sciences) and 20–25 μg/mL gentamicin (Gibco, Thermo Fisher Scientific). […]
Cell viability in cancer cell lines treated with compound was measured in a 3-day MTS cell proliferation assay using the CellTiter 96 AQueous Non-Radioactive Cell Proliferation Assay reagent (Promega) according to the manufacturer’s instructions. Absorbance was read at 490 nm on a SaFire II microplate reader (Tecan). CC50 values were calculated by fitting the obtained MTS cell viability data in GraphPad Prism using a 4-parameter log–based fit for inhibitors. Apoptosis induction and cell death upon compound treatment in PBMC was measured using the Alexa Fluor 488 Annexin V/Dead Cell Apoptosis Kit (Thermo Fisher Scientific), with readout on a FACSCanto II flow cytometer (BD Biosciences). […] The compounds were evaluated in duplo in two independent experiments.
(Tetrazolium assays rely on reduction of a dye to a coloured formazan, in cell work by metabolically active cells.)

The subject of the next test is MOLT-4. Kind of test: NCI60 5-dose screen, MOLT-4. It counts as cell-based. The following applies: Homo sapiens, leukemia, Fig 1D, read-out: Log10 GI50 (MOLT-4) (converted). As to the method:
as §1

For a further test, the system named is HT29. Kind of test: NCI60 5-dose screen, HT29. Format: cell-based. The following applies: Homo sapiens, HT-29; colon cancer; Fig 1D; read-out: Log10 GI50 (HT29) (converted). As to the method:
as §1

A further test concerns SK-MEL-2. Put plainly: NCI60 5-dose screen, SK-MEL-2. It counts as cell-based. The following applies: Homo sapiens, melanoma, Fig 1D, read-out: Log10 GI50 (SK-MEL-2) (converted). As to the method: as §1
The subject of test [3] is Jurkat cells. Put plainly: Apoptosis induction, annexin V/PI staining, Jurkat. It counts as cell-based, human. The following applies: 24 hours, dose-dependent.
A further test concerns PC-3. Put plainly: NCI60 5-dose screen, PC-3. It counts as cell-based. The settings on record: Homo sapiens, prostate cancer, Fig 1D, read-out: Log10 GI50 (PC-3) (converted). As to the method: as §1
For a further test, the system named is SW-620. Put plainly: NCI60 5-dose screen, SW-620. Format: cell-based. The following applies: Homo sapiens, colon cancer, Fig 1D, read-out: Log10 GI50 (SW-620) (converted). As for the experimental part: as §1

Some results are limits rather than exact numbers.

As usually defined, the GI50 is the concentration at which growth is held to half of that of the control. In general, IC50 refers to the concentration that gives 50% inhibition. High values mean lower potency, low ones higher potency.

With `Cc1cc(C)cc(Nc2ccc([N+](=O)[O-])c(NCCN3CCOCC3)n2)c1` [Compound 4AZA2891, 6-(3,5-dimethylanilino)-2-(2-morpholinoethylamino)-3-nitropyridine], the GI50 with UO-31 was 1380 nM; with UACC-62, < 10 nM; with ACHN it was 12 nM; with KM12, < 10 nM; in the test on DU-145, 41.7 nM; with 786-0, 52.5 nM. Also, the GI50 with MOLT-4 is 56.2 nM; in the test with HT29, 18.6 nM; in the test with SK-MEL-2, 34.7 nM; in the test with PC-3, 10.5 nM; in the test with SW-620, 14.8 nM. Further, in the test with Jurkat cells [1], the “effect on cell cycle progression” value is given as “induce G2 cell cycle arrest”. The “effect on microtubule network” value in test [2] is reported as “disintegrate the microtubule network”. The molecule also returned an IC50 in the test on BC-1 cells of 8.5 nM. Besides, the apoptosis induction entry in the test with Jurkat cells [3] is on record as “induce apoptosis”.

Regarding `Cc1ccnc(Nc2ccc([N+](=O)[O-])c(NCCN3CCOCC3)n2)c1` [Compound 4AZA2996, N^6-(4-methylpyridin-2-yl)-N^2-(2-morpholinoethyl)-3-nitropyridine-2,6-diamine], the GI50 in the test on UO-31 was < 10 nM; in the test with UACC-62, < 10 nM; in the test with ACHN, < 10 nM; in the test with KM12, < 10 nM; in the test with DU-145, 25.7 nM; in the test with 786-0 it was 12.9 nM. Moreover, the GI50 in the test with MOLT-4 is 35.5 nM; in the test with HT29 it was < 10 nM; in the test with SK-MEL-2, 30.2 nM; with PC-3 it was < 10 nM; with SW-620, < 10 nM. For the same molecule, the “effect on cell cycle progression” value in the test on Jurkat cells [1] is “induce G2 cell cycle arrest”. Moreover, the “effect on microtubule network” value in test [2] is recorded as “disintegrate the microtubule network”. The molecule further yielded an IC50 with BC-1 cells of 5.9 nM. Also, the apoptosis induction result with Jurkat cells [3] is “induce apoptosis”.
